In US10174050B2, “Spiroisoxazoline compounds having an activity potentiating the activity of an antibiotic” (priority 2012, dated 2019):
Values after ≈ are worked out from the molar mass of the structure shown.

Test system: not listed separately
Assay: physchem
Assay type: physicochemical
Settings: pH 7.4, aqueous buffer, kinetic from dmso stock
Procedure: 40 μL of a 10 mM solution in DMSO of the sample are added to 1.96 mL MeOH or PBS at pH 7.4. The samples are then agitated during 24 h at RT, centrifuged during 5 min and then filtrated on filters of 0.45 μm pore size. 20 μL of each solution are then added to 180 μL MeOH and then analyzed by LC-MS. The solubility is determined as ratio of the surfaces of the mass signals PBS/MeOH.

O=C(CCC(F)(F)F)N1CCC2(CC1)CC(c1ccccc1)=NO2 [Compound 10] gave a solubility at 24 h of 150 µM (≈ 51.1 µg/mL).

Test system: macrophages infected by M. tuberculosis
Assay: Potentiation of ethionamide cell test (HCS)
Assay type: cell-based
Settings: ligand concentration necessary to potentiate ten times the activity of ethionamide (inhibit 50% of bacterial growth), constant ethionamide 0.1 μg/mL (1/10th of its CMI99)

Going from O=C(CCC(F)(F)F)N1CCC2(CC(c3ccccc3)=NO2)C1 (stereo not shown) [Compound 4] to O=C(CCC(F)(F)F)N1CC2(CC(c3ccccc3)=NO2)C1 [Compound 5], the EC50 falls from 0.53 µM to 0.11 µM (4.8-fold). The second is the more potent here.

O=C(CCC(F)(F)F)N1CCC2(CC1)CC(c1cccs1)=NO2 [Compound 6] and O=C(CCC(F)(F)F)N1CCC2(CC1)CC(c1nccs1)=NO2 [Compound 7] are within 1.5-fold of each other in EC50: 0.03 µM for the first, 0.04 µM for the second.

Going from CC(C)CCC(=O)N1CCC2(CC1)CC(c1cccs1)=NO2 [Compound 8] to CC(C)CCC(=O)N1CCC2(CC1)CC(c1ccccc1)=NO2 [Compound 32], the EC50 rises from 0.13 µM to 5 µM (38-fold). The first is the more potent here.

Going from O=C(CCCC(F)(F)F)N1CCC2(CC1)CC(c1nccs1)=NO2 [Compound 9] to O=C(CCCC(F)(F)F)N1CCC2(CC1)CC(c1ccccc1)=NO2 [Compound 51], the EC50 rises from 0.07 µM to 1 µM (14-fold). The first is the more potent here.

Going from O=C(CCC(F)(F)F)N1CCC2(CC1)CC(c1ccccc1)=NO2 [Compound 10] to O=C(CCC(F)(F)F)N1CCC2(CC1)CC(c1ccccc1Cl)=NO2 [Compound 20], the EC50 rises from 0.02 µM to 0.03 µM (1.5-fold). The first is the more potent here.

First: Cc1ccc(C2=NOC3(CCN(C(=O)CCC(F)(F)F)CC3)C2)cc1 [Compound 11]
Second: O=C(CCC(F)(F)F)N1CCC2(CC1)CC(c1ccc(Cl)cc1)=NO2 [Compound 21]
The EC50 of the first is 2.3-fold lower: 2.5 µM for the first, 5.8 µM for the second. The first is the more potent here.

First: COc1ccccc1C1=NOC2(CCN(C(=O)CCC(F)(F)F)CC2)C1 [Compound 14]
Second: COc1cccc(C2=NOC3(CCN(C(=O)CCC(F)(F)F)CC3)C2)c1 [Compound 15]
The EC50 of the first is 14-fold lower: 0.02 µM for the first, 0.29 µM for the second.

Compared with O=C(CCC(F)(F)F)N1CCC2(CC1)CC(c1ccc3c(c1)OCO3)=NO2 [Compound 18], O=C(CCC(F)(F)F)N1CCC2(CC1)CC(c1ccc(F)cc1)=NO2 [Compound 22] is 2.6-fold lower in EC50: 1.3 µM for the first, 0.5 µM for the second.

Going from O=C(CCC(F)(F)F)N1CCC2(CC1)CC(c1cccc(C(F)(F)F)c1)=NO2 [Compound 23] to O=C(CCC(F)(F)F)N1CCC2(CC1)CC(c1ccco1)=NO2 [Compound 30], the EC50 falls from 0.4 µM to 0.05 µM (8-fold).

O=C(CCC(F)(F)F)N1CCC2(CC1)CC(C1CCCCC1)=NO2 [Compound 27] and O=C(CCC(F)(F)F)N1CCC2(CC1)CC(C1CCCC1)=NO2 [Compound 28] are the same in EC50: 0.08 µM for the first, 0.08 µM for the second.

Going from O=C(CCC(F)(F)F)N1CCC2(CC1)CC(Cc1ccccc1)=NO2 [Compound 29] to O=C(CCC(F)(F)F)N1CCC2(CC1)CC(c1ccccn1)=NO2 [Compound 31], the EC50 rises from 0.02 µM to 0.15 µM (7.5-fold).

CC(C)CCC(=O)N1CCC2(CC1)CC(c1ccccn1)=NO2 [Compound 45] and CC(C)CCC(=O)N1CCC2(CC1)CC(c1ccccc1Cl)=NO2 [Compound 46] are the same in EC50: 1.3 µM for the first, 1.3 µM for the second.

COc1ccccc1C1=NOC2(CCN(C(=O)CCC(C)C)CC2)C1 [Compound 49] and O=C(CCCC(F)(F)F)N1CCC2(CC1)CC(c1ccccc1Cl)=NO2 [Compound 50] are within 1.5-fold of each other in EC50: 0.63 µM for the first, 0.77 µM for the second.

Compound O=C(CCc1ccccc1)N1CCC2(CC1)CC(c1ccccc1)=NO2 [Compound 59] has an EC50 of 1 µM.
